Patent US12679878B2, “CRF2 receptor agonists and their use in therapy” (SANOFI, priority 2020, dated 2026)
Like-named read-outs stand apart in the source and are kept apart here. Starred links: 1 amine or outer side, 2 acyl side, 3 side chain; linkers in the order of their positions; H or OH if unused. Non-standard residues stand in square brackets, D forms with d. Residues, ends and D or L forms follow the SMILES beside them. Groups on a side chain read outwards from the residue. *: point of attachment. C18 diacid = O=C(O)CCCCCCCCCCCCCCCCC(=O)*; γGlu = O=C(O)[C@H](CCC(=O)[*:2])N[*:1]; AEEA = NCCOCCOCC(=O)O; Aib = CC(C)(N)C(=O)O

What was measured:
human CRF2α receptor = target: T1, human CRF2α receptor (Homo sapiens, UniProt Q13324); test: cAMP agonism at human CRF2 α receptor in TeloHEAC cells (Example 7); assay type: cell-based; conditions: cAMP HTRF, TeloHEAC cells stably expressing human CRF2 α
T1 construct: expressed in transfected cells; host or cells: TeloHEAC
T1 sequence (Q13324 1-411): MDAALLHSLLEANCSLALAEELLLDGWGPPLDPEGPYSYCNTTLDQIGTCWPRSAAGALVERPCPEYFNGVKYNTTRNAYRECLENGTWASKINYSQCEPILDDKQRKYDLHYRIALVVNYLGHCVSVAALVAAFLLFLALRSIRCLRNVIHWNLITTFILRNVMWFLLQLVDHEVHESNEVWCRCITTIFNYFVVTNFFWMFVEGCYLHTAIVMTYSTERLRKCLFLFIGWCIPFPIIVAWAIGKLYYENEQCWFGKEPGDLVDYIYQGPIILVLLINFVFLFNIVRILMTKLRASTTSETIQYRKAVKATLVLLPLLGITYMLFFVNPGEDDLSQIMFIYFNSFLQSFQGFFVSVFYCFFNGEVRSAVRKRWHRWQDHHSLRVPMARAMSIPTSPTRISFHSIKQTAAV
Summary of the method: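 Cryopreserved cells are thawed, washed and resuspended in IBMX-containing (2 mM) HEPES-buffered HBSS with or without 0.1% HSA. Compound incubation runs 30 min at room temperature with 2000 cells per well, then cAMP is measured by time-resolved FRET. Potency is expressed as EC50, efficacy relative to urocortin 2 at 1000 nM.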

CRF1R receptor = target: T2, CRF1R receptor (Homo sapiens, UniProt P34998); test: cAMP activity at anti-target CRF1R, CRF1R-overexpression CHO cell line (Example 9); assay type: cell-based; conditions: CRF1R-overexpression CHO cell line; for EC50: 0% HSA; for Emax: read-out: Emax (%)
T2 construct: host or cells: CHO-K1 clone 2
T2 sequence (P34998 24-415): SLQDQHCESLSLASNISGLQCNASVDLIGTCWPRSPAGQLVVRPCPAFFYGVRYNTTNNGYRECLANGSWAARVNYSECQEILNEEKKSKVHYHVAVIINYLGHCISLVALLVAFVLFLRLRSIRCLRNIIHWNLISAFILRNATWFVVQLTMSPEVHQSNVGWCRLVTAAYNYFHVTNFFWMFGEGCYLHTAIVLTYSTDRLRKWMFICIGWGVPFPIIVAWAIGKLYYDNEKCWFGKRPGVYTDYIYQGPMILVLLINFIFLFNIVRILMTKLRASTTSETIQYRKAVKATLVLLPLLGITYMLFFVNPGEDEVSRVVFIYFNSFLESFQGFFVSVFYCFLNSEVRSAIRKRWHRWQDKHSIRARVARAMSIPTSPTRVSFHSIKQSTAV
Summary of the method: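 cAMP accumulation was read by HTRF after 30 min at room temperature of compound treatment. Cells were cryopreserved CHO cells overexpressing CRF1R, plated at 2000/well in IBMX (2 mM)-containing HBSS/HEPES buffer with 0 or 0.1% HSA. Activity was normalized to 1000 nM UCN2 as 100%.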

[1] = Physical stability, Thioflavin T fibrillation assay (Example 14); assay type: physicochemical; conditions: Buffer B: 100 mM acetate buffer, pH 4.5, 2.7 mg/ml m-cresol; 3 mg/ml; 37° C. shaking
Summary of the method: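 Compounds at 3 mg/ml final in buffer were stressed at 37° C by repeated cycles of 10 s shaking at 960 rpm and 50 s rest. ThT fluorescence was read every 20 minutes in eight replicates, with fluorescence increase and lag time indicating fibrillation tendency.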

[2] = 0% HSA, read-out: EC50 [nM], 0% HSA
[3] = 0.1% HSA, read-out: EC50 [nM], 0.1% HSA

| EC50 (human CRF2α receptor; [2]) | EC50 (human CRF2α receptor; [3]) | EC50 (CRF1R receptor) | Emax (CRF1R receptor) | Increase in FI (fluorescence intensity) [1] | Lag time [1] | Structure (SMILES) |
| --- | --- | --- | --- | --- | --- | --- |
| 0.06 nM | 1.6 nM | > 1000 nM | 3.25% | No | >45 h | CC[C@H](C)[C@H](N)C(=O)N[C@H](C(=O)N[C@@H](CC(C)C)C(=O)N[C@@H](CO)C(=O)N[C@@H](CC(C)C)C(=O)N[C@@H](CC(=O)O)C(=O)N[C@H](C(=O)N1CCC[C@H]1C(=O)N[C@H](C(=O)N[C@@H](CCCCN)C(=O)N[C@@H](CC(C)C)C(=O)N[C@@H](CCCCNC(=O)COCCOCCNC(=O)COCCOCCNC(=O)CC[C@H](NC(=O)CCCCCCCCCCCCCCCCC(=O)O)C(=O)O)C(=O)N[C@@H](CCCCN)C(=O)N[C@H](C(=O)N[C@@H](CC(C)C)C(=O)N[C@@H](CC(C)C)C(=O)N[C@@H](CCCCN)C(=O)N[C@@H](CCC(N)=O)C(=O)N[C@@H](CCC(=O)O)C(=O)N[C@@H](CCCNC(=N)N)C(=O)N[C@@H](CCC(N)=O)C(=O)N[C@@H](CCCCN)C(=O)N[C@@H](CCCCN)C(=O)NC(C)(C)C(=O)N[C@@H](CCCNC(=N)N)C(=O)N[C@@H](CCC(=O)O)C(=O)N[C@@H](CCC(N)=O)C(=O)N[C@@H](C)C(=O)N[C@@H](CCC(=O)O)C(=O)N[C@@H](CCCCN)C(=O)N[C@@H](CC(N)=O)C(=O)N[C@@H](CCCCN)C(=O)N[C@@H](CCC(N)=O)C(=O)N[C@H](C(=O)N[C@@H](CC(C)C)C(=O)N[C@@H](C)C(=O)N[C@@H](CCC(N)=O)C(=O)N[C@H](C(N)=O)C(C)C)[C@@H](C)CC)[C@@H](C)CC)[C@@H](C)CC)C(C)C)C(C)C [compound 99] (H-IVLSLDVPIKLK([AEEA-AEEA-γGlu-C18 diacid])KILLKQERQKK[Aib]REQAEKNKQILAQV-NH2) |
| 0.04 nM | 1.48 nM | > 1000 nM | 28.4% | No | >45 h | CC[C@H](C)[C@H](N)C(=O)N[C@H](C(=O)N[C@@H](CC(C)C)C(=O)N[C@@H](CO)C(=O)N[C@@H](CC(C)C)C(=O)N[C@@H](CC(=O)O)C(=O)N[C@@H](C(=O)N1CCC[C@H]1C(=O)N[C@H](C(=O)N[C@@H](CCCCN)C(=O)N[C@@H](CC(C)C)C(=O)N[C@@H](CCCCNC(=O)COCCOCCNC(=O)COCCOCCNC(=O)CC[C@H](NC(=O)CCCCCCCCCCCCCCCCC(=O)O)C(=O)O)C(=O)N[C@@H](CCC(N)=O)C(=O)N[C@H](C(=O)N[C@@H](CC(C)C)C(=O)N[C@@H](CC(C)C)C(=O)N[C@@H](CCCCN)C(=O)N[C@@H](CCC(N)=O)C(=O)N[C@@H](CCC(=O)O)C(=O)N[C@@H](CCCNC(=N)N)C(=O)N[C@@H](CCC(N)=O)C(=O)N[C@@H](CCCCN)C(=O)NC(C)(C)C(=O)N[C@@H](CCC(N)=O)C(=O)N[C@@H](CCCNC(=N)N)C(=O)N[C@@H](CCC(N)=O)C(=O)N[C@@H](CCC(N)=O)C(=O)N[C@@H](C)C(=O)N[C@@H](CCC(=O)O)C(=O)N[C@@H](CCCCN)C(=O)N[C@@H](CC(N)=O)C(=O)N[C@@H](CCCCN)C(=O)N[C@@H](CCC(N)=O)C(=O)N[C@H](C(=O)N[C@@H](CC(C)C)C(=O)N[C@@H](C)C(=O)N[C@@H](CCC(N)=O)C(=O)N[C@H](C(N)=O)C(C)C)[C@@H](C)CC)[C@@H](C)CC)[C@@H](C)CC)C(C)C)C(C)C [compound 135] (H-IVLSLD[dV]PIKLK([AEEA-AEEA-γGlu-C18 diacid])QILLKQERQK[Aib]QRQQAEKNKQILAQV-NH2; N-terminus assumed) |
| 0.05 nM | 2.41 nM | > 1000 nM | 21.8% |  |  | CC[C@H](C)[C@H](N)C(=O)N[C@H](C(=O)N[C@@H](CC(C)C)C(=O)N[C@@H](CO)C(=O)N[C@@H](CC(C)C)C(=O)N[C@@H](CC(=O)O)C(=O)N[C@@H](C(=O)N1CCC[C@H]1C(=O)N[C@H](C(=O)N[C@@H](CCCCN)C(=O)N[C@@H](CC(C)C)C(=O)N[C@@H](CCCCNC(=O)COCCOCCNC(=O)COCCOCCNC(=O)CC[C@H](NC(=O)CCCCCCCCCCCCCCCCC(=O)O)C(=O)O)C(=O)N[C@@H](CCC(N)=O)C(=O)N[C@H](C(=O)N[C@@H](CC(C)C)C(=O)N[C@@H](CC(C)C)C(=O)N[C@@H](CCCCN)C(=O)N[C@@H](CCC(N)=O)C(=O)N[C@@H](CCC(=O)O)C(=O)N[C@@H](CCCNC(=N)N)C(=O)N[C@@H](CCC(N)=O)C(=O)N[C@@H](CCCCN)C(=O)N[C@@H](CCCCN)C(=O)NC(C)(C)C(=O)N[C@@H](CCCNC(=N)N)C(=O)N[C@@H](CCC(N)=O)C(=O)N[C@@H](CCCCN)C(=O)N[C@@H](C)C(=O)N[C@@H](CCC(=O)O)C(=O)N[C@@H](CCCCN)C(=O)N[C@@H](CC(N)=O)C(=O)N[C@@H](CCCCN)C(=O)N[C@@H](CCC(N)=O)C(=O)N[C@H](C(=O)N[C@@H](CC(C)C)C(=O)N[C@@H](C)C(=O)N[C@@H](CCC(N)=O)C(=O)N[C@H](C(N)=O)C(C)C)[C@@H](C)CC)[C@@H](C)CC)[C@@H](C)CC)C(C)C)C(C)C [compound 136] (H-IVLSLD[dV]PIKLK([AEEA-AEEA-γGlu-C18 diacid])QILLKQERQKK[Aib]RQKAEKNKQILAQV-NH2; N-terminus assumed) |
| 0.04 nM | 1.78 nM | > 1000 nM | 22.5% |  |  | CC[C@H](C)[C@H](N)C(=O)N[C@H](C(=O)N[C@@H](CC(C)C)C(=O)N[C@@H](CO)C(=O)N[C@@H](CC(C)C)C(=O)N[C@@H](CC(=O)O)C(=O)N[C@@H](C(=O)N1CCC[C@H]1C(=O)N[C@H](C(=O)N[C@@H](CCCCN)C(=O)N[C@@H](CC(C)C)C(=O)N[C@@H](CCCCNC(=O)COCCOCCNC(=O)COCCOCCNC(=O)CC[C@H](NC(=O)CCCCCCCCCCCCCCCCC(=O)O)C(=O)O)C(=O)N[C@@H](CCC(N)=O)C(=O)N[C@H](C(=O)N[C@@H](CC(C)C)C(=O)N[C@@H](CC(C)C)C(=O)N[C@@H](CCCCN)C(=O)N[C@@H](CCC(N)=O)C(=O)N[C@@H](CCC(=O)O)C(=O)N[C@@H](CCCNC(=N)N)C(=O)N[C@@H](CCC(N)=O)C(=O)N[C@@H](CCCCN)C(=O)N[C@@H](CCCCN)C(=O)N[C@@H](CCC(N)=O)C(=O)N[C@@H](CCCNC(=N)N)C(=O)N[C@@H](CCC(=O)O)C(=O)N[C@@H](CCC(N)=O)C(=O)N[C@@H](C)C(=O)N[C@@H](CCC(=O)O)C(=O)N[C@@H](CCCCN)C(=O)N[C@@H](CC(N)=O)C(=O)N[C@@H](CCCCN)C(=O)N[C@@H](CCC(N)=O)C(=O)N[C@H](C(=O)N[C@@H](CC(C)C)C(=O)N[C@@H](CCC(=O)O)C(=O)N[C@@H](CCC(N)=O)C(=O)N[C@H](C(N)=O)C(C)C)[C@@H](C)CC)[C@@H](C)CC)[C@@H](C)CC)C(C)C)C(C)C [compound 137] (H-IVLSLD[dV]PIKLK([AEEA-AEEA-γGlu-C18 diacid])QILLKQERQKKQREQAEKNKQILEQV-NH2; N-terminus assumed) |
| 0.03 nM | 1.31 nM | > 1000 nM | 37.6% |  |  | CC[C@H](C)[C@H](N)C(=O)N[C@H](C(=O)N[C@@H](CC(C)C)C(=O)N[C@@H](CO)C(=O)N[C@@H](CC(C)C)C(=O)N[C@@H](CC(=O)O)C(=O)N[C@@H](C(=O)N1CCC[C@H]1C(=O)N[C@H](C(=O)N[C@@H](CCCCN)C(=O)N[C@@H](CC(C)C)C(=O)N[C@@H](CCCCNC(=O)COCCOCCNC(=O)COCCOCCNC(=O)CC[C@H](NC(=O)CCCCCCCCCCCCCCCCC(=O)O)C(=O)O)C(=O)N[C@@H](CCC(N)=O)C(=O)N[C@H](C(=O)N[C@@H](CC(C)C)C(=O)N[C@@H](CC(C)C)C(=O)N[C@@H](CCCCN)C(=O)N[C@@H](CCC(N)=O)C(=O)N[C@@H](CCC(=O)O)C(=O)N[C@@H](CCCNC(=N)N)C(=O)N[C@@H](CCC(N)=O)C(=O)N[C@@H](CCCCN)C(=O)N[C@@H](CCCCN)C(=O)N[C@@H](CCC(N)=O)C(=O)N[C@@H](CCCNC(=N)N)C(=O)N[C@@H](CCC(N)=O)C(=O)N[C@@H](CCC(N)=O)C(=O)N[C@@H](C)C(=O)N[C@@H](CCC(=O)O)C(=O)N[C@@H](CCCCN)C(=O)N[C@@H](CC(N)=O)C(=O)N[C@@H](CCCCN)C(=O)N[C@@H](CCC(N)=O)C(=O)N[C@H](C(=O)N[C@@H](CC(C)C)C(=O)N[C@@H](C)C(=O)N[C@@H](CCC(N)=O)C(=O)N[C@H](C(N)=O)C(C)C)[C@@H](C)CC)[C@@H](C)CC)[C@@H](C)CC)C(C)C)C(C)C [compound 139] (H-IVLSLD[dV]PIKLK([AEEA-AEEA-γGlu-C18 diacid])QILLKQERQKKQRQQAEKNKQILAQV-NH2; N-terminus assumed) |
